# Measured values reported in patent publication US7524866B2, “Prevention and treatment of androgen—deprivation induced osteoporosis” (GTx, Inc., priority 2001, dated 2009).
# Tests used:
# [1] = test system: orchidectomized (Orx/Cx) male Sprague-Dawley rats; assay: Distal right femur cancellous pQCT (Example 3); type: in vivo, rat; conditions: Toremifene 5 mg/kg/day; for cancellous bone mineral content and density (Orx-induced decrease of 34%): Orx rats, 17-β-Estradiol 0.5 mg/kg/day s.c.; for Total Bone Area / Total Bone Content / Total Bone Density / Trabecular Area / Trabecular Content / Trabecular Density: castrated (Cx) rats, distal right femur pQCT, mean, n=5, 17-β-estradiol 0.5 mg/kg/day s.c.
# Description: Male Sprague-Dawley rats (Harlan Sprague Dawley) were placed on study at 14-weeks of age. They were randomized and divided into five treatment groups: vehicle only (placebo, or P) after sham operation, vehicle only after orchidectomy (Orx), Toremifene (5 mg/kg/day) after sham-operation, and Toremifene after orchidectomy, and 17-β-estradiol (0.5 mg/kg/day) after orchidectomy. Test articles were delivered subcutaneously by Alzet pumps. Pumps were re-implanted every 30 days until the end of the study. Five to six animals from each group were sacrificed after 60 and 120 days of treatment, and femurs were harvested, stripped of soft tissue and muscle, and stored individually in polypropylene vials at −80° C. until analysis of bone density and mechanical strength testing. Additionally, serum was collected on days 15, 30, 60, 90 and 120, to measure markers of bone metabolism and to perform serum chemistry.
# Peripheral Quantitative Computed Tomography (pQCT)
# Right femurs were subjected to pQCT analysis using a Stratec XCT-RM with associated software (Stratec Medizintechnik GmbH, Pforzheim, Germany. Software version 5.40 C). Femurs were scanned at two sites, 20% and 50% of the total femoral length measured from the distal femur. The position was verified using scout views, and scan results from two 0.5 mm slices perpendicular to the long axis of the femur shaft were recorded.
# [2] = test system: orchidectomized (Orx/Cx) male Sprague-Dawley rats; assay: Compression test of the distal right femur (Example 3); type: in vivo, rat; conditions: Toremifene 5 mg/kg/day; for mechanical strength parameters of the distal femur (maximum load, stiffness, ultimate strength, elastic modulus): Orx rats, 17-β-Estradiol 0.5 mg/kg/day s.c.; for Elastic Modulus / Energy / Maximum Load / Stiffness / Toughness / Ultimate Strength / CSA (cross sectional area): castrated (Cx) rats, n=5, 17-β-estradiol 0.5 mg/kg/day s.c.; for Elastic Modulus / Energy / Maximum Load / Stiffness / Toughness / Ultimate Strength: distal right femur compression; for CSA (cross sectional area): distal right femur specimen
# Description: Using a Material Testing System (Model 5501R Instron Corp., Canton, Mass.), two types of mechanical testing were performed on the right femur. The load and extension curves were collected by the machine software (Merlin II, Instron Corp.). All tests were conducted using a 5 kN load cell at a constant loading rate of 6 mm/min. The general applications of the tests were as described in Turner and Burr (Bone, 1993; 14: 595-608) and Ke et al (Bone, 1998; 23, 249-255).
# Compression Test of the Distal Femur
# A compression test was used to determine the mechanical properties of the distal femur. The distal femur test specimen was obtained by removing a 3 mm segment directly proximal to the distal condyle using a slow speed diamond saw with constant saline irrigation. An electronic caliper was used to measure the average anterior/posterior diameter (a), medial/lateral diameter (b), and height (h) of the bone. The extrinsic parameters, maximal load (Fu), stiffness (S) and energy (W), were obtained from the load and extension curve. The following intrinsic parameters were calculated from the measured values: Cross sectional area (CSA)=(π*a*b)/4; Ultimate Strength (σ)=Fu/CSA; Elastic modulus (E)=S/(CSA/h); Toughness (T)=W/(CSA*h).
# Orx rat = assay: Prostate weight in the Orx rat (Example 4); type: in vivo; conditions: Orx rat (Orx decreased prostate weight by 77%); FIG. 3
# Description: (§1) Eight month-old male Sprague Dawley rats were either sham-operated (SHAM) or orchidectomized (ORX). Treatment began immediately following surgery. The treatment groups were as described in Table 5.
# [3] = test system: orchidectomized rats (ORX); assay: Static and dynamic bone histomorphometry of the proximal tibia (Example 4); type: in vivo, rat; conditions: for loss of trabecular bone volume at the proximal tibia: 10 mg/kg/d Tor; for loss of trabecular bone volume at the proximal tibia / Orx-induced increase in bone turnover parameters at the proximal tibia: E 0.2 mg/kg/d; for Orx-induced increase in bone turnover parameters at the proximal tibia: Tor 5 and 10 mg/kg/d, p<0.05 vs. Orx+vehicle; for Bone Form Rate, Bone Volume Ref / Bone Form. Rate, Bone Surface Ref / Bone Formation Rate, Tissue Volume Ref / Mineral Apposition Rate / Mineralizing Surface / Osteoclast Number/Bone Surface / Osteoclast Surface / Trabecular Bone Volume / Trabecular Number / Trabecular Separation / Trabecular Thickness: proximal tibia, 6 wks, mean
# Description: as §1
# Animals were given calcein (intraperitoneally) 12 and 2 days prior to sacrifice. Femurs and lumbar vertebra (L5) were preserved frozen wrapped in saline-soaked gauze. Tibiae and lumbar vertebrae (L4) were preserved in 10% formalin for 48 hours, then transferred to 70% ethanol for long-term storage.
# Histology and Static and Dynamic Bone Histomorphometry: Approximately 1.1 cm of the proximal tibia was cut away and the frontal face was trimmed with a low-speed diamond wheel saw to expose the marrow cavity. The L4 lumbar vertebral body was prepared from the lumbar vertebra by trimming off the processes with a slow-speed diamond saw. Each proximal tibia and lumbar vertebral body was dehydrated in a series of ascending ethanol (EtOH) concentrations. Following dehydration, the bone samples were infiltrated and then embedded in a methyl methacrylate-dibutyl phthalate plastic composite. Embedded samples of the proximal tibiae were sectioned using a Leitz motorized rotary microtome equipped with a tungsten-carbide microtome knife. Once the blocks had been trimmed and faced to the sampling site, a 4-micron section was stained with Goldner's trichrome stain for bright field microscopy and an 8-micron section was left unstained for epifluorescent microscopy. Embedded lumbar vertebral body samples were also sectioned using a Leitz motorized rotary microtome equipped with a tungsten-carbide microtome knife. Once the blocks had been trimmed and faced to the sampling site, a 4-micron section was stained with Goldner's trichrome stain for bright field microscopy and an 8-micron section was left unstained for epifluorescent microscopy.
# The cancellous bone in the secondary spongiosa of the proximal tibia was evaluated in a region of interest (ROI) that was 1.0 mm distal to the lowest point of the growth plate in a rectilinear region of 3×2 fields. The cancellous bone in the marrow cavity of the lumbar vertebral body was evaluated in a ROI that was approximately 0.5 mm away from the end plates and dorsal and ventral cortices.
# The bone histomorphometry was performed using an OsteoMeasure software program (OsteoMetrics, Inc., Atlanta, Ga.) interfaced with a Nikon Eclipse E400 light/epifluorescent microscope and video subsystem. All slides were analyzed in a blinded manner. Total tissue area, trabecular bone area, trabecular bone perimeter and osteoclast perimeter and number were measured on 4 μm Goldner's trichrome-stained sections. Percent trabecular bone area, trabecular number, trabecular thickness, trabecular separation, osteoclast perimeter as a percentage of bone surface and osteoclast number per unit of bone surface were then calculated according to standardized formulae. For deriving the dynamic parameters, single-labeled calcein perimeter, double-labeled calcein perimeter and interlabel width (label thickness) were measured on 8 μm unstained sections. Mineralizing surface, mineral apposition rate and bone formation rate-surface, bone and tissue referents were calculated.
# [4] = Toremifene 5 mg/kg/d, Estradiol 0.2 mg/kg/d
Compound,cancellous bone mineral content and density (Orx-induced decrease of 34%) [1],Total Bone Area [1],Total Bone Content [1],Total Bone Density [1],Trabecular Area [1],Trabecular Content [1],Trabecular Density [1],"mechanical strength parameters of the distal femur (maximum load, stiffness, ultimate strength, elastic modulus) [2]",Elastic Modulus [2],Energy [2],Maximum Load [2],Stiffness [2],Toughness [2],Ultimate Strength [2],CSA (cross sectional area) [2],prostate weight (Orx rat),loss of trabecular bone volume at the proximal tibia [3],Orx-induced increase in bone turnover parameters at the proximal tibia [3],"Bone Form Rate, Bone Volume Ref [3, 4]","Bone Form. Rate, Bone Surface Ref [3, 4]",other results
C[C@]12CC[C@@H]3c4ccc(O)cc4CC[C@H]3[C@@H]1CC[C@@H]2O [17-β-Estradiol],fully prevent this cancellous bone loss,15.95 mm^2,11.01 mg/mm,690.74 mg/mL,7.17 mm^2,1.52 mg/mm,210.28 mg/mL,statistically significant improvements in these parameter values,753.44 MPa,58.28 mJ,613.61 N,4842.67 N/mm,0.98 MJ/m³,31.23 N/mm^2,19.75 mm^2,no effect on prostate weight,very effective in preventing loss of trabecular bone volume,significantly inhibited,42.70 %/yr,10.63 um^3/um^2/yr,"Bone Formation Rate, Tissue Volume Ref [3, 4]: 3.13 %/yr; Mineral Apposition Rate [3, 4]: 0.43 um/day; Mineralizing Surface [3, 4]: 5.31%; Osteoclast Number/Bone Surface [3, 4]: 3.77 #/mm; Osteoclast Surface [3, 4]: 6.35%; Trabecular Bone Volume [3, 4]: 8.26%; Trabecular Number [3, 4]: 1.75 #/mm; Trabecular Separation [3, 4]: 572 um; Trabecular Thickness [3, 4]: 47.11 um"
CN(C)CCOc1ccc(/C(=C(/CCCl)c2ccccc2)c2ccccc2)cc1 [Toremifene],partially prevented this decrease,15.96 mm^2,10.69 mg/mm,669.74 mg/mL,7.18 mm^2,1.13 mg/mm,157.56 mg/mL,improved various parameters to a level that was better than Sham-operated animals,579.07 MPa,56.96 mJ,467.01 N,3856.71 N/mm,0.86 MJ/m³,22.13 N/mm^2,21.30 mm^2,no effect on prostate weight,very effective in preventing loss of trabecular bone volume,significantly reduced the Orx-induced elevation in bone turnover parameters,58.20 %/yr,10.78 um^3/um^2/yr,"Bone Formation Rate, Tissue Volume Ref [3, 4]: 2.30 %/yr; Mineral Apposition Rate [3, 4]: 0.32 um/day; Mineralizing Surface [3, 4]: 6.67%; Osteoclast Number/Bone Surface [3, 4]: 3.98 #/mm; Osteoclast Surface [3, 4]: 6.61%; Trabecular Bone Volume [3, 4]: 5.33%; Trabecular Number [3, 4]: 1.30 #/mm; Trabecular Separation [3, 4]: 837.67 um; Trabecular Thickness [3, 4]: 41.39 um; Bone Form Rate, Bone Volume Ref ([3]; Toremifene 10 mg/kg/d): 21.26 %/yr; Bone Form. Rate, Bone Surface Ref ([3]; Toremifene 10 mg/kg/d): 4.78 um^3/um^2/yr; Bone Formation Rate, Tissue Volume Ref ([3]; Toremifene 10 mg/kg/d): 2.07 %/yr; Mineral Apposition Rate ([3]; Toremifene 10 mg/kg/d): 0.34 um/day; Mineralizing Surface ([3]; Toremifene 10 mg/kg/d): 3.02%; Osteoclast Number/Bone Surface ([3]; Toremifene 10 mg/kg/d): 3.33 #/mm; Osteoclast Surface ([3]; Toremifene 10 mg/kg/d): 5.27%; Trabecular Bone Volume ([3]; Toremifene 10 mg/kg/d): 8.81%; Trabecular Number ([3]; Toremifene 10 mg/kg/d): 1.85 #/mm; Trabecular Separation ([3]; Toremifene 10 mg/kg/d): 570.89 um; Trabecular Thickness ([3]; Toremifene 10 mg/kg/d): 45.54 um"
